In patent publication US20030176436A1, “Novel heterocyclic compounds as selective bacterial DHFR inhibitors and their uses thereof” (priority 2001, published 2003):
Values after ≈ are worked out from the molar mass of the structure shown. Where two headings read alike, the source gives them in different places.

Columns and labels:
[1] = biological target: T1, bacterial DHFR (bDHFR) (Escherichia coli, UniProt P0ABQ4); test: DHFR enzyme assay, Ki determination, bacterial DHFR; assay type: biochemical, E. coli
T1 construct: gift of Eric Brown, McMaster University
Method: Human and Bacterial DHFR: E. coli DHFR was kindly provided by Eric Brown of MacMaster University.
(§1) Dihydrofolic acid and NADPH were purchased from Sigma. Enzyme assays were adapted for microtitre format from a previously published procedure (2, 3). All assays were performed in a 250 μl volume in 96-well microtitre plates. Typical assays consisted of 20 nM DHFR (human or E. coli), 100 μM NADPH, and 50 μM dihydrofolic acid in 100 mM HEPES pH 8, 10 mM KCl, and 10 mM MgCl2. The assay was monitored spectrophotometrically for the conversion of NADPH to NADP+, which results in a decrease in absorbance at 340 nm.
(§2) The reaction was initiated by the addition of 125 μl of 100 μM dihydrofolic acid. The final concentrations in the assay were 20 nM DHFR, 100 μM NADPH, 50 μM dihydrofolic acid, and a range of 500 μM to 20 nM inhibitor compound. The final DMSO concentration was 2% of the total volume. Reactions were monitored as described above.

[2] = system: S. aureus; test: Microdilution antimicrobial susceptibility test (MIC); assay type: cell-based; conditions: Staphylococcus aureus; MIC, average; read-out: S. aureus (μg/ml) avg
Method: Stock solutions of tested compounds were prepared in N,N-dimethylformamide (DMF) at a concentration of 5 mg/mL. Working solutions of the tested compounds were then prepared from the stock solutions, in Mueller-Hinton broth (MHB) with a starting concentration of 64 μg/mL.
Bacterial inocula were prepared from overnight culture (i.e., one fresh colony from agar plate in 5 ml MHB; H. influenzae was grown in MHB with the addition of yeast extract, haematin, and NAD), centrifuged 2×5 min/3000 rpm (for S. pneumoniae and H. influenzae, 2×10 min/3000 rpm), and dispensed in 5 ml of fresh MHB each time, such that the bacterial suspension is diluted to obtain 100 colony forming units (cfu) in a microplate well (100 μl total volume).
Microplate wells were filled with two-fold dilutions of test compound (50 μl), starting with 64 μg/ml. Wells were then filled with 50 μl of bacterial inoculum (final volume: 100 μl/well). The plates were incubated at 37° C. for 18-24 hours (S. pneumoniae was grown in a CO2-enriched atmosphere).

[3] = biological target: T2, human DHFR (hDHFR) (Homo sapiens, UniProt P00374); test: DHFR enzyme assay, Ki determination, human DHFR; assay type: biochemical; conditions: Table 3
T2 construct: result in the amplification of a 186 amino acid hDHFR coding region; made in house; host or cells: E. coli Top10
T2 sequence (P00374 1-187): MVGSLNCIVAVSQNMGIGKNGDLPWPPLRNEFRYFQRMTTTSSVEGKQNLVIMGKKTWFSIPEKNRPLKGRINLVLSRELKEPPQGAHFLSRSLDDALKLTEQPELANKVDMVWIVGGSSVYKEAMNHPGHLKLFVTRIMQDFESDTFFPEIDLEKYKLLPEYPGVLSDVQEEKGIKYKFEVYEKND
Method: The human DHFR cDNA was cloned by PCR from the Human Universal Quick-clone™ cDNA purchased from Clontech.
The PCR fragment was digested with restriction enzymes NdeI and HindIII, and then ligated into a derivative of the pKK223-3 expression vector (Amersham Pharmacia). The final expression vector (pFW96.2) was transformed into E. coli Top10 F40 and hDHFR protein was induced by the addition of 1 mM IPTG followed by incubation at 37° C. for 4 hrs. Recombinant human DHFR was purified based on a previously published procedure (2).
as §1
as §2, with “Five microliters of inhibitor compound in DMSO was added to 120 μl of enzyme solution (40 nM DHFR and 200 μM NADPH). The reaction” for “The reaction”
V=(Vmax[S])/(Km(1+I/Ki)+[S]), where S=dihydrofolate, Km=Michaelis constant for dihydrofolate, I=inhibitor concentration.

[4] = average, read-out: bDHFR Ki/(μM) avg
[5] = second part of table, read-out: bDHFR

SMILES	Ki [1, 4]	MIC [2]	Ki ([1]; Table 3, read-out: bDHFR Ki)	Ki [3]	Ki [1, 5]	Ki ([1]; bDHFR Ki/(μM) avg, average)
CCC(c1cccc2ccccc12)N(C)c1ncc2c(N)nc(N)nc2n1 (single isomer, unassigned) [Compound 41]	0.037 µM	< 0.125 µg/mL	–	–	–	–
CN(Cc1cnc2nc(N)nc(N)c2n1)c1ccc(C(=O)NCCCCN)cc1 [Compound 2]	–	–	0.1 to 0.499 µM	1000 to 5000 nM	–	–
Nc1nc(N)c2nc(COc3cc([N+](=O)[O-])ccc3N)cnc2n1 [Compound 13]	–	–	0.5 to 0.999 µM	> 5000 nM	–	–
Nc1nc(N)c2nc(CNc3cccc(OCc4ccccc4)c3)cnc2n1 [Compound 20]	0.062 µM	0.5 µg/mL (≈ 1.34 µM)	–	–	–	–
CN(Cc1cnc2nc(N)nc(N)c2n1)c1cccc([N+](=O)[O-])c1 [Compound 21]	0.082 µM	< 0.125 µg/mL	–	–	0.082 µM	–
C[C@H](c1cccc2ccccc12)N(C)c1ncc2c(N)nc(N)nc2n1 [Compound 22]	0.002 µM	< 0.125 µg/mL	< 0.002 µM	> 75000 nM	–	–
CC(c1ccc(F)c2ccccc12)N(C)c1ncc2c(N)nc(N)nc2n1 (stereo not shown) [Compound 23]	0.027 µM	1 µg/mL (≈ 2.75 µM)	–	–	–	–
CC(c1cccc2ccccc12)N(C)c1ncc2c(N)nc(N)nc2n1 (stereo not shown) [Compound 24]	0.015 µM	0.25 µg/mL (≈ 0.724 µM)	–	–	–	–
CC(c1cccc2ccccc12)N(CCc1ccccc1)c1ncc2c(N)nc(N)nc2n1 (stereo not shown) [Compound 26]	0.02 µM	1 µg/mL (≈ 2.3 µM)	–	–	–	–
CC(c1c2c(cc3ccccc13)CCCC2)N(C)c1ncc2c(N)nc(N)nc2n1 (stereo not shown) [Compound 27]	0.008 µM	0.5 µg/mL (≈ 1.25 µM)	–	–	–	–
CC(c1ccc2c3c(cccc13)CC2)N(C)c1ncc2c(N)nc(N)nc2n1 (stereo not shown) [Compound 28]	0.02 µM	< 0.125 µg/mL	–	–	–	–
CCOc1ccc2ccccc2c1CN(C)c1ncc2c(N)nc(N)nc2n1 [Compound 29]	0.02 µM	< 0.125 µg/mL	–	–	< 0.02 µM	–
CC(c1ccc(Cl)c2ccccc12)N(C)c1ncc2c(N)nc(N)nc2n1 (stereo not shown) [Compound 30]	0.028 µM	< 0.125 µg/mL	–	–	0.024 µM	–
CC(c1c2c(cc3ccccc13)CCCC2)N(CC1CC1)c1ncc2c(N)nc(N)nc2n1 (stereo not shown) [Compound 31]	0.024 µM	1 µg/mL (≈ 2.27 µM)	–	–	–	–
CCN(c1ncc2c(N)nc(N)nc2n1)[C@H](C)c1ccc(C)c2ccccc12 [Compound 32]	0.011 µM	0.5 µg/mL (≈ 1.34 µM)	–	–	–	–
CCC(c1cccc2ccccc12)N(C)c1ncc2c(N)nc(N)nc2n1 (stereo not shown) [Compound 33]	–	0.015 µg/mL (≈ 0.0417 µM)	–	–	0.012 µM	0.012 µM
C=CCN(c1ncc2c(N)nc(N)nc2n1)C(C)c1cccc2ccccc12 (stereo not shown) [Compound 34]	0.014 µM	1 µg/mL (≈ 2.69 µM)	–	–	–	–
CC(c1cc(Cl)cc2ccccc12)N(C)c1ncc2c(N)nc(N)nc2n1 (stereo not shown) [Compound 35]	0.037 µM	0.5 µg/mL (≈ 1.32 µM)	–	–	–	–
CCN(c1ncc2c(N)nc(N)nc2n1)[C@H](C)c1csc2ccccc12 [Compound 36]	0.005 µM	< 0.125 µg/mL	–	–	0.005 µM	–
CCN(c1ncc2c(N)nc(N)nc2n1)[C@H](C)c1ccc(F)c2ccccc12 [Compound 37]	0.003 µM	< 0.125 µg/mL	–	–	–	–
C[C@@H](c1ccc(F)c2ccccc12)N(C)c1ncc2c(N)nc(N)nc2n1 [Compound 38]	0.06 µM	0.5 µg/mL (≈ 1.38 µM)	–	–	–	–
CC(c1ccnc2ccccc12)N(C)c1ncc2c(N)nc(N)nc2n1 (stereo not shown) [Compound 39]	0.015 µM	0.25 µg/mL (≈ 0.722 µM)	–	–	–	–
CCC(c1ccc(F)c2ccccc12)N(C)c1ncc2c(N)nc(N)nc2n1 (stereo not shown) [Compound 40]	0.004 µM	< 0.125 µg/mL	–	–	–	–

SMILES	Ki [1, 4]	MIC [2]	Ki ([1]; Table 3, read-out: bDHFR Ki)	Ki [3]	Ki [1, 5]	Ki ([1]; bDHFR Ki/(μM) avg, average)
CC[C@H](c1cccc2ccccc12)N(C)c1ncc2c(N)nc(N)nc2n1 [Compound 42]	0.004 µM	< 0.125 µg/mL	–	–	–	–
CCCC(c1cccc2ccccc12)N(C)c1ncc2c(N)nc(N)nc2n1 (stereo not shown) [Compound 43]	0.004 µM	< 0.125 µg/mL	–	–	–	–
CCC(c1ccc(Cl)c2ccccc12)N(C)c1ncc2c(N)nc(N)nc2n1 (stereo not shown) [Compound 44]	0.004 µM	< 0.125 µg/mL	–	–	–	–
CCN(c1ncc2c(N)nc(N)nc2n1)C(C)c1cccc2ccccc12 (stereo not shown) [Compound 45]	0.008 µM	2 µg/mL (≈ 5.56 µM)	–	–	–	–
C=CCN(Cc1cnc2nc(N)nc(N)c2n1)c1ccccc1 [Compound 46]	0.093 µM	2 µg/mL (≈ 6.51 µM)	–	–	–	–
CC(c1cccc2ccccc12)N(CCc1cccc(F)c1)c1ncc2c(N)nc(N)nc2n1 (stereo not shown) [Compound 47]	0.023 µM	2 µg/mL (≈ 4.41 µM)	–	–	–	–
CC(c1ccc(OCc2c(F)cccc2Cl)cc1)N(C)c1ncc2c(N)nc(N)nc2n1 (stereo not shown) [Compound 48]	0.007 µM	2 µg/mL (≈ 4.41 µM)	–	–	–	–
CCCOCCN(c1ncc2c(N)nc(N)nc2n1)C(C)c1cccc2ccccc12 (stereo not shown) [Compound 49]	0.02 µM	2 µg/mL (≈ 4.79 µM)	–	–	–	–
CCN(c1ncc2c(N)nc(N)nc2n1)C(C)c1ccc(C)c2ccccc12 (stereo not shown) [Compound 50]	0.004 µM	2 µg/mL (≈ 5.36 µM)	–	–	–	–
Cc1[nH]ncc1CCCN(c1ncc2c(N)nc(N)nc2n1)C(C)c1cccc2ccccc12 (stereo not shown) [Compound 51]	0.022 µM	2 µg/mL (≈ 4.41 µM)	–	–	–	–
Cc1ccc(C(C)N(CC2CC2)c2ncc3c(N)nc(N)nc3n2)c2ccccc12 (stereo not shown) [Compound 52]	0.022 µM	2 µg/mL (≈ 5.01 µM)	–	–	–	–
CCc1ccc2ccc(C(C)N(CC3CC3)c3ncc4c(N)nc(N)nc4n3)cc2c1 (stereo not shown) [Compound 53]	0.03 µM	2 µg/mL (≈ 4.84 µM)	–	–	–	–
Cc1ccc([C@@H](C)N(CC2CC2)c2ncc3c(N)nc(N)nc3n2)c2ccccc12 [Compound 54]	0.01 µM	2 µg/mL (≈ 5.01 µM)	–	–	–	–
CC(c1ccc(Cl)c2ccccc12)N(CC1CC1)c1ncc2c(N)nc(N)nc2n1 (stereo not shown) [Compound 55]	0.019 µM	2 µg/mL (≈ 4.76 µM)	–	–	–	–
CCc1ccc2ccccc2c1C(C)N(C)c1ncc2c(N)nc(N)nc2n1 (stereo not shown) [Compound 56]	0.093 µM	2 µg/mL (≈ 5.36 µM)	–	–	–	–
CC(c1cccc2ccccc12)N(CCc1ccc(Cl)cc1)c1ncc2c(N)nc(N)nc2n1 (stereo not shown) [Compound 57]	0.011 µM	2 µg/mL (≈ 4.26 µM)	–	–	–	–
CC(c1cccc2ccccc12)N(CCCCO)c1ncc2c(N)nc(N)nc2n1 (stereo not shown) [Compound 58]	0.015 µM	2 µg/mL (≈ 4.96 µM)	–	–	–	–
C[C@H](c1csc2ccccc12)N(CC1CC1)c1ncc2c(N)nc(N)nc2n1 [Compound 59]	0.005 µM	2 µg/mL (≈ 5.11 µM)	–	–	–	–
CC(c1cccc2ccccc12)N(CCC(C)(C)C)c1ncc2c(N)nc(N)nc2n1 (stereo not shown) [Compound 60]	0.029 µM	2 µg/mL (≈ 4.81 µM)	–	–	–	–
CCCN(Cc1cnc2nc(N)nc(N)c2n1)c1ccccc1 [Compound 61]	0.013 µM	2 µg/mL (≈ 6.46 µM)	–	–	–	–
Nc1nc(N)c2nc(CNc3ccc(Cl)c4ccccc34)cnc2n1 [Compound 63]	–	–	–	–	0.104 µM	–
Cc1ccc(C(F)(F)F)cc1NCc1cnc2nc(N)nc(N)c2n1 [Compound 64]	–	–	–	–	0.385 µM	–
Nc1nc(N)c2cnc(NCc3ccc(Oc4ccc(F)cc4)cc3)nc2n1 [Compound 66]	–	–	< 1 µM	> 500000 nM	–	–
